Experimental findings from the supplement of paper PMC10307832 are described below.

Common to all, as to assay: relative viability (nuclei count vs DMSO), 5 days (fraction); higher = more cells survive
One experiment deals with NCI-H1623. The procedure, abridged: (§1)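 Relative viability divides the nuclei count in treated wells by that in vehicle wells. Lung cancer cell lines were seeded in 1536-well plates, dosed by pin tool the next day, and fixed and stained after 5 days in one step with final 0.05% Triton X-100, 1% formaldehyde and 1 ug/ml Hoechst. Dosing was a single drug or a fixed anchor-drug dose plus five library-drug doses (not always all listed) in √10 steps, and values are medians of duplicate plates imaged at 4×.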

A further experiment concerns NCI-H2009. The procedure, abridged: as §1
The test system of the next experiment is NCI-H460. Put shortly: as §1
The next experiment has as its system NCI-H522. Put shortly: as §1
A further experiment deals with NCI-H661. Put shortly:
as §1

Turning to `O=C(O)c1ccc(-c2c[nH]c3ncc(-c4ccccc4)cc23)cc1C1CCCC1` + CCNC(=O)c1noc(-c2cc(C(C)C)c(O)cc2O)c1-c1ccc(CN2CCOCC2)cc1 [Luminespib] (partner 0.01 µM), the relative viability in the experiment on NCI-H1623 (first compound 0.04 µM) was determined as 0.445; in the experiment with NCI-H1623 (first compound 0.1265 µM), 0.471; in the experiment with NCI-H1623 (first compound 0.4 µM) it was 0.512; in the experiment with NCI-H1623 (first compound 1.265 µM), 0.496; in the experiment on NCI-H2009 (first compound 0.04 µM) it was 1.05; in the experiment with NCI-H2009 (first compound 0.1265 µM) it was 1.03. Also, the relative viability in the experiment with NCI-H2009 (first compound 0.4 µM) worked out at 0.963; in the experiment on NCI-H2009 (first compound 1.265 µM) it was 0.75; in the experiment on NCI-H460 (first compound 0.04 µM) it was 0.0285; with NCI-H460 (first compound 0.1265 µM), 0.0329; in the experiment on NCI-H460 (first compound 0.4 µM), 0.0398; in the experiment on NCI-H460 (first compound 1.265 µM), 0.0257. Also, the relative viability in the experiment with NCI-H522 (first compound 0.04 µM) came out at 1.37; with NCI-H522 (first compound 0.1265 µM), 1.19; with NCI-H522 (first compound 0.4 µM) it was 0.998; with NCI-H522 (first compound 1.265 µM) it was 1.03; with NCI-H661 (first compound 0.04 µM), 0.915; with NCI-H661 (first compound 0.4 µM), 0.905. In the experiment with NCI-H661 (first compound 1.265 µM), this molecule gave a relative viability of 0.897.

As for `C=C1C(=O)O[C@@H](CCCCCCCC)[C@@H]1C(=O)O` [C-75] + CCNC(=O)c1noc(-c2cc(C(C)C)c(O)cc2O)c1-c1ccc(CN2CCOCC2)cc1 [Luminespib] (partner 0.01 µM), the relative viability with NCI-H1623 (first compound 0.08 µM) worked out at 0.436; with NCI-H1623 (first compound 0.253 µM), 0.536; with NCI-H1623 (first compound 0.8 µM) it was 0.585; in the experiment with NCI-H1623 (first compound 2.53 µM) it was 0.505; with NCI-H1623 (first compound 8 µM) it was 0.475; in the experiment with NCI-H2009 (first compound 0.08 µM), 1.02. The relative viability came to 1.05 with NCI-H2009 (first compound 0.253 µM); 1 in the experiment on NCI-H2009 (first compound 0.8 µM); 0.999 in the experiment with NCI-H2009 (first compound 2.53 µM); 0.793 with NCI-H2009 (first compound 8 µM); 0.0308 in the experiment with NCI-H460 (first compound 0.08 µM); 0.0239 with NCI-H460 (first compound 0.253 µM). Further, the relative viability in the experiment with NCI-H460 (first compound 0.8 µM) was 0.0329; in the experiment with NCI-H460 (first compound 8 µM), 0.0319; with NCI-H522 (first compound 0.08 µM), 1.06; in the experiment with NCI-H522 (first compound 0.253 µM) it was 1.04; with NCI-H522 (first compound 0.8 µM), 1.06; in the experiment with NCI-H522 (first compound 2.53 µM), 0.904. Also, the relative viability stood at 0.911 in the experiment with NCI-H522 (first compound 8 µM); 0.946 with NCI-H661 (first compound 0.08 µM); 0.905 in the experiment on NCI-H661 (first compound 0.253 µM); 0.899 with NCI-H661 (first compound 0.8 µM); 0.869 with NCI-H661 (first compound 2.53 µM); 0.84 in the experiment with NCI-H661 (first compound 8 µM).

Regarding `O=C(O)c1ccc(-c2c[nH]c3ncc(-c4ccccc4)cc23)cc1C1CCCC1` + Cc1nc(Nc2ncc(C(=O)Nc3c(C)cccc3Cl)s2)cc(N2CCN(CCO)CC2)n1 [Dasatinib] (partner 0.075 µM), the relative viability with NCI-H1623 (first compound 0.04 µM) worked out at 0.537; in the experiment with NCI-H1623 (first compound 0.1265 µM) it was 0.502; in the experiment on NCI-H1623 (first compound 0.4 µM) it was 0.535; in the experiment with NCI-H1623 (first compound 1.265 µM) it was 0.545; in the experiment with NCI-H2009 (first compound 0.04 µM), 0.322; in the experiment with NCI-H2009 (first compound 0.1265 µM), 0.312. Besides, the relative viability was 0.277 in the experiment on NCI-H2009 (first compound 0.4 µM); 0.264 with NCI-H2009 (first compound 1.265 µM); 0.566 in the experiment on NCI-H460 (first compound 0.04 µM); 0.676 in the experiment on NCI-H460 (first compound 0.1265 µM); 0.472 in the experiment on NCI-H460 (first compound 0.4 µM); 0.428 with NCI-H460 (first compound 1.265 µM). Moreover, the relative viability with NCI-H522 (first compound 0.04 µM) came out at 0.833; in the experiment with NCI-H522 (first compound 0.1265 µM), 0.887; in the experiment on NCI-H522 (first compound 0.4 µM), 0.714; in the experiment with NCI-H522 (first compound 1.265 µM), 0.851; with NCI-H661 (first compound 0.04 µM), 0.852; in the experiment on NCI-H661 (first compound 0.1265 µM) it was 1.1. For the same molecule, the relative viability in the experiment with NCI-H661 (first compound 0.4 µM) turned out to be 0.792; in the experiment on NCI-H661 (first compound 1.265 µM) it was 0.797.

Turning to `Oc1nc(-c2ccc(C(F)(F)F)cc2)nc2c1CSCC2` [XAV939] + CCNC(=O)c1noc(-c2cc(C(C)C)c(O)cc2O)c1-c1ccc(CN2CCOCC2)cc1 [Luminespib] (partner 0.01 µM), the relative viability with NCI-H1623 (first compound 0.08 µM) worked out at 0.493; in the experiment on NCI-H1623 (first compound 0.253 µM) it was 0.432; with NCI-H1623 (first compound 0.8 µM), 0.415; with NCI-H1623 (first compound 2.53 µM), 0.357; with NCI-H2009 (first compound 0.08 µM) it was 1.09; in the experiment with NCI-H2009 (first compound 0.253 µM), 0.883. Besides, the relative viability in the experiment on NCI-H2009 (first compound 0.8 µM) came to 1; in the experiment on NCI-H2009 (first compound 2.53 µM) it was 0.94; in the experiment on NCI-H460 (first compound 0.08 µM), 0.0319; in the experiment with NCI-H460 (first compound 0.253 µM) it was 0.0395; in the experiment with NCI-H460 (first compound 0.8 µM), 0.0405; in the experiment on NCI-H460 (first compound 2.53 µM) it was 0.0235. In addition, the relative viability with NCI-H522 (first compound 0.08 µM) stood at 1.45; with NCI-H522 (first compound 0.253 µM), 1.24; with NCI-H522 (first compound 0.8 µM), 1.05; with NCI-H522 (first compound 2.53 µM), 1.09; in the experiment on NCI-H661 (first compound 0.08 µM) it was 0.894; with NCI-H661 (first compound 0.253 µM), 0.892. For the same molecule, the relative viability with NCI-H661 (first compound 0.8 µM) was found to be 0.913; in the experiment with NCI-H661 (first compound 2.53 µM), 0.933.
